Measurements as given in patent US8563542B2 (Cyclacel Limited, priority 2007, dated 2013).
Counter-ions that a name gives are not always drawn.

Each molecule was assayed against PLK1 (Homo sapiens, UniProt P53350) (assay: PLK1 protein kinase assay (CDC25C phosphorylation, [γ-32P]-ATP)). Settings: Table 2, PLK1 IC50; class symbols; read-out: PLK1 IC50.
Type: biochemical

Sequence of PLK1 (P53350 whole entry): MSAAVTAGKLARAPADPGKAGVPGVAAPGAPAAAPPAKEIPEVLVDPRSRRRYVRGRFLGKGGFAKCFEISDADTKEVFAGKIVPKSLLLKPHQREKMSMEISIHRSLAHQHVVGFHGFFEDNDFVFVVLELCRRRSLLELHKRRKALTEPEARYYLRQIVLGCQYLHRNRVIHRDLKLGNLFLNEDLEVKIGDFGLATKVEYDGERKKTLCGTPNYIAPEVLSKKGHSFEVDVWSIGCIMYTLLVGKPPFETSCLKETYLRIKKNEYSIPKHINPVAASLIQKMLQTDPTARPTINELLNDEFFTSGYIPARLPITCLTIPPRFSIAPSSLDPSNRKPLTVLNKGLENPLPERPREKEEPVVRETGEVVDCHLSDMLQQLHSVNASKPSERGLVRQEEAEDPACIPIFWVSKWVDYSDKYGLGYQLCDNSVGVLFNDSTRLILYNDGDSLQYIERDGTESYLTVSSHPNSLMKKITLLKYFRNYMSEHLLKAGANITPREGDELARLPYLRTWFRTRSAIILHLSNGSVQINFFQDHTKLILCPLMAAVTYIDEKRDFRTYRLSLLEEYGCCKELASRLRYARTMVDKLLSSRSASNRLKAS

Row | IC50 [nM] | Compound
1 | < 10000 | Cc1cc(C(=O)O)ccc1Nc1ncc2c(n1)N(C1CCCC1)CC1(CC1)C(=O)N2C [compound 280, 4-(9-Cyclopentyl-5-methyl-6-oxo-6,7,8,9-tetrahydro-5H-pyrimido[4,5-b][1,4]diazepin-3,1′-cyclopropane-2-ylamino)-3-methyl-benzoic acid]
2 | < 100 | CN1C(=O)C2(CC2)CN(C2CCCC2)c2nc(Nc3ccc(C(=O)O)cc3F)ncc21 [compound 283, 4-(9-Cyclopentyl-5-methyl-6-oxo-6,7,8,9-tetrahydro-5H-spiro[pyrimido[4,5-b][1,4]diazepin-3,1′-cyclopropane]-2-ylamino)-3-fluorobenzoic acid]
3 | < 100 | CN1CCC(NC(=O)c2ccc(Nc3ncc4c(n3)N(C3CCCC3)CC3(CC3)C(=O)N4C)c(OC(F)(F)F)c2)CC1 [compound 284, 4-(9-Cyclopentyl-5-methyl-6-oxo-6,7,8,9-tetrahydro-5H-spiro[pyrimido[4,5-b][1,4]diazepin-3,1′-cyclopropane]-2-ylamino)-3-trifluoromethoxy-N-(1-methyl-piperidin-4-yl)-benzamide]
4 | < 1000 | Cc1cc(C(=O)NC2CCN(C)CC2)ccc1Nc1ncc2c(n1)N(C1CCCC1)CC1(CC1)C(=O)N2C [compound 301]
5 | < 1000 | COc1cc(C(=O)NC2CCN(C)CC2)ccc1Nc1ncc2c(n1)N(CC(C)C)CCC(=O)N2C [compound 302, 4-(9-Isobutyl-5-methyl-6-oxo-6,7,8,9-tetrahydro-5H-pyrimido[4,5-b][1,4]diazepin-2-ylamino)-3-methoxy-N-(1-methyl-piperidin-4-yl)-benzamide]
6 | < 1000 | COc1cc(C(=O)NC2CCCN(C)C2)ccc1Nc1ncc2c(n1)N(CC(C)C)CCC(=O)N2C (centres unmarked) [compound 303, 4-(9-Isobutyl-5-methyl-6-oxo-6,7,8,9-tetrahydro-5H-pyrimido[4,5-b][1,4]diazepin-2-ylamino)-3-methoxy-N-(1-methyl-piperidin-3-yl)-benzamide]
7 | < 1000 | COc1cc(C(=O)NC2CCN(Cc3ccccc3)CC2)ccc1Nc1ncc2c(n1)N(CC(C)C)CCC(=O)N2C [compound 304, N-(1-Benzyl-piperidin-4-yl)-4-(9-isobutyl-5-methyl-6-oxo-6,7,8,9-tetrahydro-5H-pyrimido[4,5-b][1,4]diazepin-2-ylamino)-3-methoxy-benzamide]
8 | < 1000 | COc1cc(C(=O)NC2CC(C)(C)N(C)C(C)(C)C2)ccc1Nc1ncc2c(n1)N(CC(C)C)CCC(=O)N2C [compound 306, 4-(9-Isobutyl-5-methyl-6-oxo-6,7,8,9-tetrahydro-5H-pyrimido[4,5-b][1,4]diazepin-2-ylamino)-3-methoxy-N-(1,2,2,6,6-pentamethyl-piperidin-4-yl)-benzamide]
9 | < 1000 | CCN(CC)CCNC(=O)c1ccc(Nc2ncc3c(n2)N(CC(C)C)CCC(=O)N3C)c(OC)c1 [compound 307, N-(2-Diethylamino-ethyl)-4-(9-isobutyl-5-methyl-6-oxo-6,7,8,9-tetrahydro-5H-pyrimido[4,5-b][1,4]diazepin-2-ylamino)-3-methoxy-benzamide]
10 | < 10000 | COc1cc(C(=O)NC2CCN(C)CC2)ccc1Nc1ncc2c(n1)N(c1ccccc1C)CCC(=O)N2C [compound 308, 3-Methoxy-4-(5-methyl-6-oxo-9-o-tolyl-6,7,8,9-tetrahydro-5H-pyrimido[4,5-b][1,4]diazepin-2-ylamino)-N-(1-methyl-piperidin-4-yl)-benzamide]
11 | < 10000 | COc1cc(C(=O)NC2CCCN(C)C2)ccc1Nc1ncc2c(n1)N(c1ccccc1C)CCC(=O)N2C (centres unmarked) [compound 309, 3-Methoxy-4-(5-methyl-6-oxo-9-o-tolyl-6,7,8,9-tetrahydro-5H-pyrimido[4,5-b][1,4]diazepin-2-ylamino)-N-(1-methyl-piperidin-3-yl)-benzamide]
12 | < 10000 | COc1cc(C(=O)NC2CCN(Cc3ccccc3)CC2)ccc1Nc1ncc2c(n1)N(c1ccccc1C)CCC(=O)N2C [compound 310, N-(1-Benzyl-piperidin-4-yl)-3-methoxy-4-(5-methyl-6-oxo-9-o-tolyl-6,7,8,9-tetrahydro-5H-pyrimido[4,5-b][1,4]diazepin-2-ylamino)-benzamide]
13 | < 10000 | COc1cc(C(=O)NC2CC(C)(C)N(C)C(C)(C)C2)ccc1Nc1ncc2c(n1)N(c1ccccc1C)CCC(=O)N2C [compound 312, 3-Methoxy-4-(5-methyl-6-oxo-9-o-tolyl-6,7,8,9-tetrahydro-5H-pyrimido[4,5-b][1,4]diazepin-2-ylamino)-N-(1,2,2,6,6-pentamethyl-piperidin-4-yl)-benzamide]
14 | < 10000 | CCN(CC)CCNC(=O)c1ccc(Nc2ncc3c(n2)N(c2ccccc2C)CCC(=O)N3C)c(OC)c1 [compound 313, N-(2-Diethylamino-ethyl)-3-methoxy-4-(5-methyl-6-oxo-9-o-tolyl-6,7,8,9-tetrahydro-5H-pyrimido[4,5-b][1,4]diazepin-2-ylamino)-benzamide]
15 | < 1000 | COc1ccc(N2CCC(=O)N(C)c3cnc(Nc4ccc(C(=O)NC5CCN(C)CC5)cc4OC)nc32)cc1 [compound 314]
16 | < 1000 | COc1ccc(N2CCC(=O)N(C)c3cnc(Nc4ccc(C(=O)NC5CCCN(C)C5)cc4OC)nc32)cc1 (centres unmarked) [compound 315]
17 | < 1000 | COc1ccc(N2CCC(=O)N(C)c3cnc(Nc4ccc(C(=O)NC5CCN(Cc6ccccc6)CC5)cc4OC)nc32)cc1 [compound 316, N-(1-Benzyl-piperidin-4-yl)-3-methoxy-4-[9-(4-methoxy-phenyl)-5-methyl-6-oxo-6,7,8,9-tetrahydro-5H-pyrimido[4,5-b][1,4]diazepin-2-ylamino]-benzamide]
18 | < 1000 | COc1ccc(N2CCC(=O)N(C)c3cnc(Nc4ccc(C(=O)NC5CC(C)(C)N(C)C(C)(C)C5)cc4OC)nc32)cc1 [compound 318]
19 | < 10000 | CCN(CC)CCNC(=O)c1ccc(Nc2ncc3c(n2)N(c2ccc(OC)cc2)CCC(=O)N3C)c(OC)c1 [compound 319, N-(2-Diethylamino-ethyl)-3-methoxy-4-[9-(4-methoxy-phenyl)-5-methyl-6-oxo-6,7,8,9-tetrahydro-5H-pyrimido[4,5-b][1,4]diazepin-2-ylamino]-benzamide]
20 | < 1000 | COc1cc(C(=O)NCC(=O)N2CCN(C(C)C)CC2)ccc1Nc1ncc2c(n1)N(C1CCCC1)CC1(CC1)C(=O)N2C [compound 321]
21 | < 100 | COc1cc(C(=O)NC2CCN(Cc3ccccc3)C2)ccc1Nc1ncc2c(n1)N(C1CCCC1)CC1(CC1)C(=O)N2C (centres unmarked) [compound 322, N-(Benzyl-pyrrolidin-3-yl)-4-(9-cyclopentyl-5-methyl-6-oxo-6,7,8,9-tetrahydro-5H-spiro[pyrimido[4,5-b][1,4]diazepin-3,1′-cyclopropane]-2-ylamino)-3-methoxy-N-benzamide]
22 | < 100 | CN1CCC(NC(=O)c2ccc(Nc3ncc4c(n3)N(C3CCCC3)CC3(CC3)C(=O)N4C)c(F)c2)CC1 [compound 323, 4-(9-Cyclopentyl-5-methyl-6-oxo-6,7,8,9-tetrahydro-5H-spiro[pyrimido[4,5-b][1,4]diazepin-3,1′-cyclopropane]-2-ylamino)-3-fluoro-N-(1-methyl-piperidin-4-yl)-benzamide]
23 | < 100 | COc1cc(C(=O)NC2CCN(C)CC2)ccc1Nc1ncc2c(n1)N(C1CCCC1)CC1(CC1)C(=O)N2C [compound 341, 4-(9-Cyclopentyl-5-methyl-6-oxo-6,7,8,9-tetrahydro-5H-spiro[pyrimido[4,5-b][1,4]diazepin-3,1′-cyclopropane]-2-ylamino)-3-methoxy-N-(1-methyl-piperidin-4-yl)-benzamide mesylate]
24 | < 1000 | COc1cc(C(=O)NC2CCN(CC(=O)O)CC2)ccc1Nc1ncc2c(n1)N(C1CCCC1)CCC(=O)N2C [compound 343]
25 | < 100 | COc1cc(C(=O)NC2CCN(C(C)C)CC2)ccc1Nc1ncc2c(n1)N(C1CCCC1)CCC(=O)N2C [compound 344, 4-(9-Cyclopentyl-5-methyl-6-oxo-6,7,8,9-tetrahydro-5H-pyrimido[4,5-b][1,4]diazepin-2-ylamino)-N-(1-isopropyl-piperidin-4-yl)-3-methoxy-benzamide]

Row | Compound | IC50 [nM]
26 | COc1cc(C(=O)NC2CN3CCC2CC3)ccc1Nc1ncc2c(n1)N(c1ccccc1OC)CCC(=O)N2C (centres unmarked) [compound 279, N-(1-Aza-bicyclo[2.2.2]oct-3-yl)-3-methoxy-4-[9-(2-methoxy-phenyl)-5-methyl-6-oxo-6,7,8,9-tetrahydro-5H-pyrimido[4,5-b][1,4]diazepin-2-ylamino]-benzamide] | < 10000
27 | COc1cc(C(=O)NC2CN3CCC2CC3)ccc1Nc1ncc2c(n1)N(CC(C)C)CCC(=O)N2C (centres unmarked) [compound 305, N-(1-Aza-bicyclo[2.2.2]oct-3-yl)-4-(9-isobutyl-5-methyl-6-oxo-6,7,8,9-tetrahydro-5H-pyrimido[4,5-b][1,4]diazepin-2-ylamino)-3-methoxy-benzamide] | < 1000
28 | COc1cc(C(=O)NC2CN3CCC2CC3)ccc1Nc1ncc2c(n1)N(c1ccccc1C)CCC(=O)N2C (centres unmarked) [compound 311, N-(1-Aza-bicyclo[2.2.2]oct-3-yl)-3-methoxy-4-(5-methyl-6-oxo-9-o-tolyl-6,7,8,9-tetrahydro-5H-pyrimido[4,5-b][1,4]diazepin-2-ylamino)-benzamide] | < 1000
29 | COc1ccc(N2CCC(=O)N(C)c3cnc(Nc4ccc(C(=O)NC5CN6CCC5CC6)cc4OC)nc32)cc1 (centres unmarked) [compound 317, N-(1-Aza-bicyclo[2.2.2]oct-3-yl)-3-methoxy-4-[9-(4-methoxy-phenyl)-5-methyl-6-oxo-6,7,8,9-tetrahydro-5H-pyrimido[4,5-b][1,4]diazepin-2-ylamino]-benzamide] | < 1000
